Reference: US7910751B2, “Heterocyclidene acetamide derivative” (Mochida Pharmaceutical Co., Ltd., priority 2005, dated 2011)

Biological target: T1, human TRPV1 (Homo sapiens, UniProt Q8NER1)
T1 construct: expressed in transfected cells; host or cells: CHO-K1
Assay: Measurement of capsaicin-induced Ca influx in human TRPV1 transformed CHO cell line using FDSS-6000
Assay type: cell-based
Conditions: concentration at which the capsaicin concentration-reaction curve is shifted two times to the right, human TRPV1 transformed CHO cells

T1 sequence (Q8NER1 whole entry): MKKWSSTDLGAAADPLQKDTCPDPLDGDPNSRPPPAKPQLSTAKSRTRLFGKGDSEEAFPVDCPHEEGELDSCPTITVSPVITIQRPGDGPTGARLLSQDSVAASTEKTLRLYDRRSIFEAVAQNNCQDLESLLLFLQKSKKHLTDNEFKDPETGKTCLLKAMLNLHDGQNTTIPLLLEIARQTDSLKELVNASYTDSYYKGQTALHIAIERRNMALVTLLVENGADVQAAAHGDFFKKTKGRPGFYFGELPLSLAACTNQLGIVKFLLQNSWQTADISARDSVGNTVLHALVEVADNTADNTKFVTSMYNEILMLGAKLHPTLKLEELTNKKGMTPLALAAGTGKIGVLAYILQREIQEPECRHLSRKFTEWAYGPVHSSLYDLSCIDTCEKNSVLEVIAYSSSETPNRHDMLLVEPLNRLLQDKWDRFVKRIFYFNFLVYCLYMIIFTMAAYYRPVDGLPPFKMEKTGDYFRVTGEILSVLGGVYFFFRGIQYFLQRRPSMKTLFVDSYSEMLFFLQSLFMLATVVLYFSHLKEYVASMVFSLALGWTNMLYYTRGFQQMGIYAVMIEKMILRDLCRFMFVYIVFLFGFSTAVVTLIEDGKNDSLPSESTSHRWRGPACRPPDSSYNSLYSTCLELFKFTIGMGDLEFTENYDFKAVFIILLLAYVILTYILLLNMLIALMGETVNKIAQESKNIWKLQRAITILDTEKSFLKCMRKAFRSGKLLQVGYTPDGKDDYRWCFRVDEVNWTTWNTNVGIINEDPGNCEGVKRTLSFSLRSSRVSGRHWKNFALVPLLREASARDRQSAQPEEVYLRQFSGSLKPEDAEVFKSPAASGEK

| SMILES | A2 VALUE |
| --- | --- |
| COC(=O)CCC(=O)N1CC/C(=C\C(=O)Nc2ccc3cccnc3c2)c2ccc(C(F)(F)F)cc21 [Example 101, (E)-2-(7-trifluoromethyl-2,3-dihydro-1-(3-(carbomethoxy)propanoyl)quinolin-4(1H)-ylidene)-N-(quinolin-7-yl)acetamide] | A (compounds of the present invention having an A2 value of less than 100 nM are represented by A) |
| O=C(/C=C1\CCN(C(=O)CC2CCCC2)c2cc(C(F)(F)F)ccc21)Nc1ccc2cccnc2c1 [Example 102, (E)-2-(7-trifluoromethyl-2,3-dihydro-1-(cyclopentylacetyl)quinolin-4(1H)-ylidene)-N-(quinolin-7-yl)acetamide] | A (compounds of the present invention having an A2 value of less than 100 nM are represented by A) |
| O=C(/C=C1\CCN(C(=O)C2CC2)c2cc(C(F)(F)F)ccc21)Nc1cccc2c1CC(O)CC2 (stereo not shown) [Example 105, (E)-2-(7-trifluoromethyl-2,3-dihydro-1-cyclopropanecarbonylquinolin-4(1H)-ylidene)-N-(7-hydroxy-5,6,7,8-tetrahydronaphthalen-1-yl)acetamide] | A (compounds of the present invention having an A2 value of less than 100 nM are represented by A) |
| O=C(/C=C1\CCNc2cc(C(F)(F)F)ccc21)Nc1cccc2c1CC(O)CC2 (stereo not shown) [Example 106, (E)-2-(7-trifluoromethyl-2,3-dihydroquinolin-4(1H)-ylidene)-N-(7-hydroxy-5,6,7,8-tetrahydronaphthalen-1-yl)acetamide] | A (compounds of the present invention having an A2 value of less than 100 nM are represented by A) |
| CCCCC(=O)N1CC/C(=C\C(=O)Nc2cccc3c2CC(O)C(=O)N3)c2ccc(C(F)(F)F)cc21 (stereo not shown) [Example 107, (E)-2-(7-trifluoromethyl-2,3-dihydro-1-pentanoylquinolin-4(1H)-ylidene)-N-(3,4-dihydro-3-hydroxy(1H)quinolin-2-on-5-yl)acetamide] | A (compounds of the present invention having an A2 value of less than 100 nM are represented by A) |
| CCCCC(=O)N1CC/C(=C\C(=O)Nc2cccc3c2CC(O)CN3)c2ccc(C(F)(F)F)cc21 (stereo not shown) [Example 108, (E)-2-(7-trifluoromethyl-2,3-dihydro-1-pentanoylquinolin-4(1H)-ylidene)-N-(3-hydroxy-1,2,3,4-tetrahydroquinolin-5-yl)acetamide] | A (compounds of the present invention having an A2 value of less than 100 nM are represented by A) |
| CC1(C)CC1C(=O)N1CC/C(=C\C(=O)Nc2cccc3c2CC(O)CC3)c2ccc(C(F)(F)F)cc21 (stereo not shown) [Example 109, (E)-2-(7-trifluoromethyl-2,3-dihydro-1-((2,2-dimethylcyclopropane)carbonyl)quinolin-4(1H)-ylidene)-N-(7-hydroxy-5,6,7,8-tetrahydronaphthalen-1-yl)acetamide] | A (compounds of the present invention having an A2 value of less than 100 nM are represented by A) |
| O=C(/C=C1\CCN(C(=O)C2CCC(C(F)(F)F)CC2)c2cc(C(F)(F)F)ccc21)Nc1cccc2c1CC(O)CC2 (stereo not shown) [Example 110] | A (compounds of the present invention having an A2 value of less than 100 nM are represented by A) |
| O=C(/C=C1\CCN(C(=O)c2ccco2)c2cc(C(F)(F)F)ccc21)Nc1cccc2c1CC(O)CC2 (stereo not shown) [Example 111, (E)-2-(7-trifluoromethyl-2,3-dihydro-1-(2-furancarbonyl)quinolin-4(1H)-ylidene)-N-(7-hydroxy-5,6,7,8-tetrahydronaphthalen-1-yl)acetamide] | A (compounds of the present invention having an A2 value of less than 100 nM are represented by A) |
| O=C(/C=C1\CCN(C(=O)C2(O)CC2)c2cc(C(F)(F)F)ccc21)Nc1cccc2c1CC(O)CC2 (stereo not shown) [Example 112, (E)-2-(1-(1-hydroxycyclopropanecarbonyl)-7-trifluoromethyl-2,3-dihydroquinolin-4(1H)-ylidene)-N-(7-hydroxy-5,6,7,8-tetrahydronaphthalen-1-yl)acetamide] | B (compounds having an A2 value of 100 nM or more are represented by B) |
